# Data taken from patent EP0510719A1, “Benzimidazole derivatives substituted with a radical group and their use for inhibiting gastric acid secretion” (priority 1986, dated 1988).
# Counter-ions that a name gives are not always drawn. Like-named read-outs stand apart in the source and are kept apart here.
# Tests used:
# gastric acid secretion = test: Inhibiting effect in vivo on gastric acid secretion in conscious dog (histamine-stimulated, chronic gastric fistula dog); details: inhibition during the 2nd hour after dose
# Experimental: Chronic gastric fistula dog were used. These dogs have been surgically provided with a gastric cannula in the stomach and a duodenal fistula, used for direct intraduodenal administration of test compounds. Following a 4 weeks' recovery period after surgery, tests were performed once a week on each dog. Food and water were withdrawn 18 hours before each test.
# Gastric acid secretion was induced by a continuous 4 h infusion of histamine at individual doses (400-600 nmol/kg^.h,iv) resulting in approximately 90% of maximal secretion of gastric acid. After 1 h of histamine stimulation, test compounds or vehicle were administered, either iv or im (vehicle = 0.5% saline) or id (vehicle = 0.5% Methocel®, 90 HG 15000, Dow Chem Corp.) via a catheter through the duodenal fistula. The gastric juice was collected by free flow from the gastric cannula in consecutive 30 min. samples during the duration of the histamine infusion. The samples were titrated to pH 7.0 with 0.1 M or 1.0 M NaOH using an automatic titrator and the acid output was calculated. The acid output during the periods after administration of test compound or vehicle was expressed as the fraction of the output during the period preceding these administrations, and the per cent inhibition of acid secretion was calculated by comparing in each dog the fractional responses induced by the test compound to the corresponding vehicle-induced fractional responses.
# The test results given in Table 5 below represent inhibition during the 2nd hour after dose.
# Solubility in water = type: physicochemical
# Experimental: By comparison, the sodium salt of omeprazole, 5-methoxy-2-[[(4-methoxy 3-5-dimethyl-pyridinyl)methyl] sulfinyl]-1-H-benzimidazole, has a solubility of 0.4 mg per ml at pH 9, a pH considered suitable for i.v. administration.
# [1] = Chemical stability in aqueous buffer solution at different pH, followed kinetically; type: physicochemical
# [2] = pH 5, 37°C, aqueous buffer solution, low concentration, read-out: t 1/2 (hours) pH 5 (converted)
# [3] = pH 7.3, 37°C, aqueous buffer solution, low concentration, read-out: t 1/2 (hours) pH 7.3 (converted)
structure (smiles),measurement,setting,value
COc1c(C)cnc(C[S+]([O-])c2nc3ccccc3n2COC(=O)CCC(=O)N2CCN(C)CC2)c1C (stereo not drawn) [Example 3],Inhibition of acid secretion (%),"gastric acid secretion; 0,3 μmol/kg iv",72 (1) %
same,Inhibition of acid secretion (%),gastric acid secretion; 1 μmol/kg iv,98 (1) %
same,Inhibition of acid secretion (%),gastric acid secretion; 2 μmol/kg id,100 (1) %
same,solubility,Solubility in water; water,> 60 mg/mL
same,half-life,[1]; [2],112 h
same,half-life,[1]; [3],32 h
COc1ccc2nc([S+]([O-])Cc3ncc(C)c(OC)c3C)n(COP(=O)(O)O)c2c1 (stereo not drawn) [Example 29],Inhibition of acid secretion (%),"gastric acid secretion; 0,3 μmol/kg iv",45 (1) %
same,Inhibition of acid secretion (%),"gastric acid secretion; 0,5 μmol/kg iv",60 (1) %
same,Inhibition of acid secretion (%),gastric acid secretion; 1 μmol/kg im,90 (1) %
same,Inhibition of acid secretion (%),gastric acid secretion; 1 μmol/kg iv,80-85 (2) %
same,solubility,Solubility in water; water,> 60 mg/mL
same,degraded at 600 h,"[1]; aqueous buffer, after 25 days at 22° at the concentration 50 mg/ml, footnote to the pH 9.5 value, read-out: decomposition",12%
same,half-life,[1]; [3],74 h
same,half-life,"[1]; pH 9.5, 37°C, aqueous buffer solution, low concentration, read-out: t 1/2 (hours) pH 9.5",> 600 h
"COc1ccc2c(c1)nc([S+]([O-])Cc1ncc(C)c(OC)c1C)n2COP(=O)(O)O (stereo not drawn) [Example 32, phosphoric acid, [5-methoxy-[2[[(4-methoxy-3,5-dimethyl-2-pyridinyl)methyl]sulfinyl]-1-H-benzimidazole-1-yl]]methyl ester, disodium salt]",Inhibition of acid secretion (%),"gastric acid secretion; 0,3 μmol/kg iv",55 (1) %
same,Inhibition of acid secretion (%),"gastric acid secretion; 0,6 μmol/kg iv",53 (1) %
same,half-life,[1]; [3],51 h
CCOP(=O)(O)OCn1c([S+]([O-])Cc2ncc(C)c(OC)c2C)nc2ccc(OC)cc21 (stereo not drawn) [Example 33],Inhibition of acid secretion (%),gastric acid secretion; 1 μmol/kg id,97 (1) %
same,Inhibition of acid secretion (%),gastric acid secretion; 4 μmol/kg id,98 (1) %
same,t 1/2 (hours) pH 5,"[1]; pH 5, 37°C, aqueous buffer solution, low concentration",No decomp. after 30 h
COc1ccc2c(c1)nc([S+]([O-])Cc1ncc(C)c(OC)c1C)n2COC(=O)CCC(=O)N1CCN(C)CC1 (stereo not drawn) [Example 34],half-life,"[1]; pH 3, 37°C, aqueous buffer solution, low concentration, read-out: t 1/2 (hours) pH 3 (converted)",80 h
same,half-life,[1]; [2],100 h
same,half-life,[1]; [3],40 h
COc1ccc2[nH]c([S+]([O-])Cc3ncc(C)c(OC)c3C)nc2c1 (stereo not drawn) [Omeprazole-Na^⊕],half-life,"[1]; pH 2, 37°C, aqueous buffer solution, low concentration, read-out: t 1/2 (hours) pH 2 (converted)",0.07 h
same,half-life,[1]; [2],0.04 h
same,half-life,[1]; [3],20 h
"COc1ccc2[nH]c([S+]([O-])Cc3ncc(C)c(OC)c3C)nc2c1 (stereo not drawn) [omeprazole, 5-methoxy-2-[[(4-methoxy 3-5-dimethyl-pyridinyl)methyl]sulfinyl]-1-H-benzimidazole, reference compound]",solubility,"Solubility in water; at pH 9, a pH considered suitable for i.v. administration, sodium salt, read-out: solubility",0.4 mg/mL
